Assay: CO2 wash test of model fragrance A on cotton fabric (supercritical fluid extractor, GC FID)
Type: physicochemical
Conditions: for fraction left on fabric: from the wash test of Table 2; for % Left on Fabric: supercritical CO2 43° C., 77 bar, density 0.25 g/ml, cotton fabric
Experimental: The device used for this experiment was an Hewlett Packard 7680T SFE Supercritical Fluid Extractor. 1 g of cotton fabric was put into a 7 ml Thimble. 0.01 grams of the model fragrance A was applied to the uppermost part of the fabric representing the earliest stage of the CO2 cleaning process.
The CO2 properties used were: density=0.25 g/ml, pressure=77 bar (Pc=73.8 bar), temperature=43° C. These were supercritical as the Critical Temperature for CO2 is 31.1° C.
CO2 was introduced into the thimble and allowed to soak for 2 min. The thimble was flushed with CO2 for 5 min at a flow rate of 2 ml/min. The CO2/fragrance mixture was carried into the trap where the CO2 was evaporated leaving the fragrance on the analytical trap packing being maintained at −30 deg C. The trap was rinsed with Acetone. The fragrance/acetone mixture was analyzed using gas chromatography with flame ionization detection (GC FID).
The results on the GC FID were used to calculate the % of each fragrance ingredient that was retained on the fabric. (90% means that 90% of the fragrance was substantive on the fabric).

Row | Molecule | fraction left on fabric | % Left on Fabric
1 | CCCCC/C(C=O)=C/c1ccccc1 [Amyl Cinnamic Aldehyde] | 0.83 | 85%
2 | CC(=O)OCc1ccccc1 [Benzyl Acetate] | 0.799 | 80%
3 | O=C(OCc1ccccc1)c1ccccc1O [Benzyl Salicylate] | 0.908 | 91%
4 | C[C@@H]1CC[C@H]2C(C)(C)[C@H]3C[C@@]12CC[C@@]3(C)O [Cedrol] | 0.839 | 84%
5 | CC(=O)O[C@]1(C)CC[C@@]23C[C@@H]1C(C)(C)[C@@H]2CC[C@H]3C [Cedryl Acetate] | 0.834 | 83%
6 | O=c1ccc2ccccc2o1 [Coumarin] | 0.945 | 94%
7 | CCOC(=O)c1ccccc1C(=O)OCC [Diethyl Phthalate] | 0.807 | 81%
8 | C=CC(C)CCCC(C)(C)O (centres unmarked) [Dihydro Myrcenol] | 0.737 | 74%
9 | CC(=O)OC(C)(C)Cc1ccccc1 [Dimethyl Benzyl Carbinyl Acetate] | 0.689 | 69%
10 | O=C1CCCCCCCCCCCC(=O)OCCO1 [Ethylene Brassylate] | 0.928 | 93%
11 | C=CCc1ccc(O)c(OC)c1 [Eugenol] | 0.794 | 79%
12 | CC(C)=CCC/C(C)=C/CO [Geraniol, Supra] | 0.769 | 77%
13 | CC(=O)c1c(C)c([N+](=O)[O-])c(C(C)(C)C)c([N+](=O)[O-])c1C [Musk Ketone] | 0.905 | 91%

Results, then the molecule that gave them:

Row | fraction left on fabric | % Left on Fabric | Molecule
14 | 0.741 | 74% | CC(=O)O[C@@H]1C[C@H]2CC[C@]1(C)C2(C)C (racemic) [Iso Bornyl Acetate]
15 | 0.763 | 76% | CC(C)=CCCC(C)CCO (centres unmarked) [Gitronellol 950, Citronellol 950]
16 | 0.863 | 86% | CCCCCCC(C=O)=Cc1ccccc1 [Hexyl Cinnamic Aldehyde]
17 | 0.846 | 85% | CC(CC=O)CCCC(C)(C)O (centres unmarked) [Hydroxy Citronellal P]
18 | 0.729 | 73% | CC(=O)/C=C/C1C(C)=CCCC1(C)C (stereo not drawn) [Ionone, Alpha]
19 | 0.759 | 76% | CC(C)CCOC(=O)c1ccccc1O [Iso Amyl Salicylate]
20 | 0.781 | 78% | CC(C=O)Cc1ccc(C(C)(C)C)cc1 (centres unmarked) [Lilial]
21 | 0.977 | 98% | C=C(C)[C@H]1CC=C(C)CC1 [Limonene D]
22 | 0.687 | 69% | CC(=O)OC1CCC(C(C)(C)C)CC1 (centres unmarked) [Oryclon/Vertenex]
23 | 0.698 | 70% | CC(=O)OCCc1ccccc1 [Phenyl Ethyl Acetate]
24 | – | 83% | OCCc1ccccc1 [Phenyl Ethyl Alcohol]
25 | 0.989 | 99% | CC1=CCC2CC1C2(C)C (stereo not drawn) [Pinene, Alpha, alpha-Pinene]
26 | 0.995 | 100% | C=C1CCC2CC1C2(C)C (stereo not drawn) [Pinene, Beta, beta-Pinene]
27 | 0.969 | 97% | CC(=O)OCC=C(C)C [Prenyl acetate]
28 | – | 74% | Methyl Ionone Gamma Coeur
29 | 0.691 | 69% | Terpineol, Pure
